# Measurements as given in patent US20040131497A1, “PROCESS FOR STERILIZATION OF BIOLOGICAL COMPOSITIONS CONTAING PROTEIN” (priority 2002, published 2004).
# Like-named read-outs stand apart in the source and are kept apart here.
# Key:
# PRV=pseudorabies virus = conditions: fibrinogen 5 g/L, UVC 254 nm, eight passes
# [1] = cited from earlier work
# Factor VIII = assay type: biochemical
Structure (SMILES),Log reduction PRV (PRV=pseudorabies virus; stabiliser 0.5 mM),Log reduction PRV (PRV=pseudorabies virus; stabiliser 1 mmol/l),Log reduction PRV (PRV=pseudorabies virus; stabiliser 2 mmol/l),solubility in aqueous solutions [1],PRV titer reduction (PRV),decrease in FVIII activity (Factor VIII)
"C[C@@H]1O[C@@H](OC[C@H]2O[C@@H](Oc3c(-c4ccc(O)c(O)c4)oc4cc(O)cc(O)c4c3=O)[C@H](O)[C@@H](O)[C@@H]2O)[C@H](O)[C@H](O)[C@H]1O [rutin, reference compound]",3 Log,3 Log,2.5 Log,poorly soluble in aqueous solutions,–,–
COc1cc(C=O)ccc1O [vanillin],5 Log,5.5 Log,5.5 Log,–,5 Log,10%
